# Patent US11771123B2, “Methods for treating biomass to produce oligosaccharides and related compositions” (Cambridge Glycoscience Ltd, priority 2019, dated 2023)
# How the values were obtained:
# [1] = Flow characteristics: timed flow from a vertically stood syringe under gravity; type: physicochemical; conditions: syringe filled with 20 mL test liquid, room temperature
# Experimental: The glucose solutions were made by weighing 6, 12, 18, and 24 g D-glucose respectively and making up with 90° C. water to 30 mL. The flow characteristics were measured by timing the flow rate of 5 mL, and where suitable, 20 mL of the liquids from a vertically stood syringe (BD Plastipak 300613) filled with 20 mL of test liquid under gravity at room temperature.
# Sample were analyzed for flow characteristics as described in Example 9.
# [2] = Glaze formation: dried on glass plate and scored with a knife; type: physicochemical; conditions: cellobiose alone, 10-320 mM, dried at 37° C.
# Experimental: 100 μl of 10-320 mM (10, 20, 40, 80, 160, and 320 mM) cellobiose±1% w/v birchwood xylan was pipetted onto a glass plate. • 2. Samples were dried at 37° C. • 3. Samples were scored with a knife to test whether or not the ingredient settled into a solid glaze. […] With a cellobiose concentration of 160 mM or higher (5.5% w/v, or 550% w/w as compared with xylan) the morphology of the glaze reverted to that without xylan present.
SMILES,Time for 5 mL flow [1],Time for 20 mL flow [1],Glaze formation [2]
"O=C[C@H](O)[C@@H](O)[C@H](O)[C@H](O)CO [20% w/v glucose, D-glucose]",2.3 s,13.5 s,
"O=C[C@H](O)[C@@H](O)[C@H](O)[C@H](O)CO [40% w/v glucose, D-glucose]",2.5 s,15 s,
O=C[C@H](O)[C@@H](O)[C@H](O[C@@H]1O[C@H](CO)[C@@H](O)[C@H](O)[C@H]1O)[C@H](O)CO [cellobiose],,,no firm glaze was formed

# Further lines, results first:
Time for 5 mL flow [1],Time for 20 mL flow [1],Glaze formation [2],SMILES
3 s,20 s,,"O=C[C@H](O)[C@@H](O)[C@H](O)[C@H](O)CO [60% w/v glucose, D-glucose]"
5 s,38 s,,"O=C[C@H](O)[C@@H](O)[C@H](O)[C@H](O)CO [80% w/v glucose, D-glucose]"
